One test addresses T1, Recombinant JAK3 (Homo sapiens, UniProt P52333).
T1 construct: purchased Carna Biosciences
T1 sequence (P52333 1-1124): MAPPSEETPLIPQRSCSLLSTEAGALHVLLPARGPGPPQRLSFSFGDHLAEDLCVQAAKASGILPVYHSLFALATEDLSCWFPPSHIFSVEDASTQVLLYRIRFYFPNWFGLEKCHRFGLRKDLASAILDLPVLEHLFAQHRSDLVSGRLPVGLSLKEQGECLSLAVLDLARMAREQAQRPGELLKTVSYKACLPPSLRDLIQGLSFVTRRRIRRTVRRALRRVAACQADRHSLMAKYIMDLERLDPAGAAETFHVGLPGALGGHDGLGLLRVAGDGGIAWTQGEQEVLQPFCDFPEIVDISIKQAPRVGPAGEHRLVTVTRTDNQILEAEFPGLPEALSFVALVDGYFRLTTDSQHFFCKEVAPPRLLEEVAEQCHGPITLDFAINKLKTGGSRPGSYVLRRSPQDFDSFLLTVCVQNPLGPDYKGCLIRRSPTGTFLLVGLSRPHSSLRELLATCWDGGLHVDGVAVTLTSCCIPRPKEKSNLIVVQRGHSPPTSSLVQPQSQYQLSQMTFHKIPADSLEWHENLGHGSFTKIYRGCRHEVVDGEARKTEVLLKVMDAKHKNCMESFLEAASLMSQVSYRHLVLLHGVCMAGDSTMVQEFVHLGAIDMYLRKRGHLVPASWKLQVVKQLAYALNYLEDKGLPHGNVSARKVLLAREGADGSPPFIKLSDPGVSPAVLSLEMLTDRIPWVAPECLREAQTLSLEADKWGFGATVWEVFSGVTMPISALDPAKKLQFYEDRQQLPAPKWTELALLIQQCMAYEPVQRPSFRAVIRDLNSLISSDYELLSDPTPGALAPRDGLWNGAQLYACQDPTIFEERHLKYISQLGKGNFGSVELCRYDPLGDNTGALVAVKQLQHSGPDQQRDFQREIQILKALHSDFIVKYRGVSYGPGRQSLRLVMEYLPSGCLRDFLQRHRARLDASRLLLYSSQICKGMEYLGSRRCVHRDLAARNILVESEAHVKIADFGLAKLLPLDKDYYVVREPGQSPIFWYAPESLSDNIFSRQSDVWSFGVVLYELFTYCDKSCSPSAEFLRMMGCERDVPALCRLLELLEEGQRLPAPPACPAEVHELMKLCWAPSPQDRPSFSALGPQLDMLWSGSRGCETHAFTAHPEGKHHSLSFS
Description: JAK biochemical assay (LANCE Ultra TR-FRET), JAK3. The note with it: recombinant JAK3, TR-FRET; read-out: Biochemical Assay (μM) JAK3. The essentials: (§1)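 Kinase reactions ran in buffer of 50 mM HEPES pH 7.5 with 1 mM EGTA, 10 mM MgCl2, 2 mM DTT and 0.01% Tween-20, using recombinant enzyme. Phosphorylated ULight substrate was detected by TR-FRET, and compound effect expressed as % inhibition against vehicle.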
On the technique in general: Time-resolved FRET reads energy transfer from a long-lived donor to a nearby acceptor.

In a further test the target is T2, Recombinant JAK2 (Homo sapiens, UniProt O60674).
T2 construct: purchased Carna Biosciences
T2 sequence (O60674 whole entry): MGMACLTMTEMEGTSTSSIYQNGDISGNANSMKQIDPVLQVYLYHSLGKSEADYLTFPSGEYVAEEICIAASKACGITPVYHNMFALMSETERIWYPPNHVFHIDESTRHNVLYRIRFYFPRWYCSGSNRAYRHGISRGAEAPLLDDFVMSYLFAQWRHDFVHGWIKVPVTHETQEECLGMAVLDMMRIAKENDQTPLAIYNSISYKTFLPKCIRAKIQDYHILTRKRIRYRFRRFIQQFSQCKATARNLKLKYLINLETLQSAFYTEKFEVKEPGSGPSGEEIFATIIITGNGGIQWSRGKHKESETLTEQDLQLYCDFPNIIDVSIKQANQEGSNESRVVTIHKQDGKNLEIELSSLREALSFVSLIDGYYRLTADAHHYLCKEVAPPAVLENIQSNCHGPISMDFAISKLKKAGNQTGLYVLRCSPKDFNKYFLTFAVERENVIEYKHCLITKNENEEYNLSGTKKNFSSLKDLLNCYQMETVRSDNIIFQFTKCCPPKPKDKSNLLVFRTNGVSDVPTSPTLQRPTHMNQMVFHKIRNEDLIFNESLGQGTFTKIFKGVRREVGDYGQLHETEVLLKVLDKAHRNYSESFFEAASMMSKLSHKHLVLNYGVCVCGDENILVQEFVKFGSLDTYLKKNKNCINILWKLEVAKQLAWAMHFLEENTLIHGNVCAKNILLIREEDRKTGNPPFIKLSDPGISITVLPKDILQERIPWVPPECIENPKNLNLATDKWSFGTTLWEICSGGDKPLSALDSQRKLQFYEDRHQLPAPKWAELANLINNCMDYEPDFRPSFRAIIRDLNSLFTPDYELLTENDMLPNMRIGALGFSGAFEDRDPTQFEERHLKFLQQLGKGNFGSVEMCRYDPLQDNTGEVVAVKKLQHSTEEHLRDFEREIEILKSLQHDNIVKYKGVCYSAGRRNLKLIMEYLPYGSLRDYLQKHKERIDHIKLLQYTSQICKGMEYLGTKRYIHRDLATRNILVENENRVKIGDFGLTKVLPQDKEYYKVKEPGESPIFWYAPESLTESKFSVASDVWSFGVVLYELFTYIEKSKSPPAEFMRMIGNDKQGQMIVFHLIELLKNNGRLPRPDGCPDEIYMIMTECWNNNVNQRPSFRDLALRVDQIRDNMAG
Put plainly: JAK biochemical assay (LANCE Ultra TR-FRET), JAK2. The note with it: recombinant JAK2, TR-FRET; read-out: Biochemical Assay (μM) JAK2. In a few lines:
as §1

The next test has as its target T3, Recombinant JAK1 (Homo sapiens, UniProt P23458).
T3 construct: purchased Carna Biosciences
Description: JAK biochemical assay (LANCE Ultra TR-FRET), JAK1. The note with it: recombinant JAK1, TR-FRET; read-out: Biochemical Assay (μM) JAK1. In a few lines:
as §1

Another test deals with T4, Recombinant TYK2 (Homo sapiens, UniProt P29597).
T4 construct: purchased Carna Biosciences
T4 sequence (P29597 whole entry): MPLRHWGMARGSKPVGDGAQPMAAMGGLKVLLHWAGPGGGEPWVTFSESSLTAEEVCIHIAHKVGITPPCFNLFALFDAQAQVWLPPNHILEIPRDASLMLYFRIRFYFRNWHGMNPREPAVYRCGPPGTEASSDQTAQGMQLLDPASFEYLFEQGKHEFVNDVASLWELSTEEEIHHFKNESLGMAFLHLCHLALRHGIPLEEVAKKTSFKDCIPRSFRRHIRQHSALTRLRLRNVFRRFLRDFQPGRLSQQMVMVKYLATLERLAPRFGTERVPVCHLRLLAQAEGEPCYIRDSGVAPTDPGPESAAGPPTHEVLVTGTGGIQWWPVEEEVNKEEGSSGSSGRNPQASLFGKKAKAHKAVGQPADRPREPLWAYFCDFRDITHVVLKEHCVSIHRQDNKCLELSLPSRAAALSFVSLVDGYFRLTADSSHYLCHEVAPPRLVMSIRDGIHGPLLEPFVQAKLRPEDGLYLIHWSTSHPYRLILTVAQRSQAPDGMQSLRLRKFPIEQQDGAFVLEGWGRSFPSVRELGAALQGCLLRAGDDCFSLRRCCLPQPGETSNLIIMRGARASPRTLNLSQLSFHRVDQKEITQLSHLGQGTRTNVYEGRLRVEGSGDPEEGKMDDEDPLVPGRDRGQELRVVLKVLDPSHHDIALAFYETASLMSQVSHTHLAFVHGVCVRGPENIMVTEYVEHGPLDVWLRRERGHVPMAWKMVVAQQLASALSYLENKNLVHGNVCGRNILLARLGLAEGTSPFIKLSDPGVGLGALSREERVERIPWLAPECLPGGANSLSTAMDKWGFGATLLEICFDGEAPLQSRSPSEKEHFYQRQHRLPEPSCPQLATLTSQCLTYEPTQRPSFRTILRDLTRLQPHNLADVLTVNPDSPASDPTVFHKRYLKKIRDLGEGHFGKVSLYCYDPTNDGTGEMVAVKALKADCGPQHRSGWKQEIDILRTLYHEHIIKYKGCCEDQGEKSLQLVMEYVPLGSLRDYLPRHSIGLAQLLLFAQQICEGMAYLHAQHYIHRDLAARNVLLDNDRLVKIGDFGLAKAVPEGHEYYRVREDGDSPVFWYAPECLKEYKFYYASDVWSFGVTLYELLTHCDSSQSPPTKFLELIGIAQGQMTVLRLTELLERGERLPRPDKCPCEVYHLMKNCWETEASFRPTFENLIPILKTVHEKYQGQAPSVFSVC
Description: JAK biochemical assay (LANCE Ultra TR-FRET), TYK2. Conditions: recombinant TYK2, TR-FRET; read-out: Biochemical Assay (μM) TYK2. In a few lines: as §1

For test [1], the system named is STAT5 phosphorylation by IL-2 in HT-2 cells. Description: STAT5 phosphorylation by IL-2 in HT-2 cells (HTRF). In kind it is cell-based. Conditions: IL-2 50 U/ml, pSTAT5 HTRF, read-out: Cell Based Assay (μM) HT-2/IL-2/pSTAT5. On the procedure: HT-2 cells were starved […] in RPMI phenol red with 10% fetal bovine serum for 4 hours in CO2 incubator maintained at 37° c. Compounds were diluted in DMSO and added to 96 well plate containing a final density of 1,20,000 cells per well. Cells and compounds are incubated for 30 minutes in CO2 incubator maintained at 37° C. and final DMSO concentration in cell based assay was 0.2%. Human recombinant cytokine, IL-2 (50 U/ml) was added to the plate containing cells and compound and incubated for 20 minutes with gentle tapping/shaking at every 5 minutes once. Compound mediated effects on STAT5 phosphorylation was measured in the lysates prepared by using CISBIO pSTAT5 detection kit by HTRF method. Background signal obtained from cells which were not activated with cytokines, was subtracted from vehicle controls and compound treated wells.

Test [2] has as its system STAT3 phosphorylation by IL-6 in TF-1 cells. Put plainly: JAK cellular assay: STAT3 phosphorylation by IL-6 in TF-1 cells (HTRF). In kind it is cell-based. Conditions: Homo sapiens, TF-1, TF-1 cells, IL-6 30 ng/ml, pSTAT3 HTRF; read-out: Cell Based Assay (μM) TF-1/IL-6/pSTAT3. In a few lines: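 Phospho-STAT3 (IL-6, 30 ng/ml) and phospho-STAT5 (GMCSF, 5 ng/ml) read by HTRF in lysates after 20 min cytokine exposure, minus unstimulated-cell background. Cells were serum-starved overnight, plated at 120,000/well, given compound 30 min at 37 °C beforehand; DMSO 0.2% final.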

Structures can show the parent of a compound that is named as a salt. Where two headings read alike, the source gives them in different places. Bounds are passed on as bounds.

T3 sequence (P23458 whole entry): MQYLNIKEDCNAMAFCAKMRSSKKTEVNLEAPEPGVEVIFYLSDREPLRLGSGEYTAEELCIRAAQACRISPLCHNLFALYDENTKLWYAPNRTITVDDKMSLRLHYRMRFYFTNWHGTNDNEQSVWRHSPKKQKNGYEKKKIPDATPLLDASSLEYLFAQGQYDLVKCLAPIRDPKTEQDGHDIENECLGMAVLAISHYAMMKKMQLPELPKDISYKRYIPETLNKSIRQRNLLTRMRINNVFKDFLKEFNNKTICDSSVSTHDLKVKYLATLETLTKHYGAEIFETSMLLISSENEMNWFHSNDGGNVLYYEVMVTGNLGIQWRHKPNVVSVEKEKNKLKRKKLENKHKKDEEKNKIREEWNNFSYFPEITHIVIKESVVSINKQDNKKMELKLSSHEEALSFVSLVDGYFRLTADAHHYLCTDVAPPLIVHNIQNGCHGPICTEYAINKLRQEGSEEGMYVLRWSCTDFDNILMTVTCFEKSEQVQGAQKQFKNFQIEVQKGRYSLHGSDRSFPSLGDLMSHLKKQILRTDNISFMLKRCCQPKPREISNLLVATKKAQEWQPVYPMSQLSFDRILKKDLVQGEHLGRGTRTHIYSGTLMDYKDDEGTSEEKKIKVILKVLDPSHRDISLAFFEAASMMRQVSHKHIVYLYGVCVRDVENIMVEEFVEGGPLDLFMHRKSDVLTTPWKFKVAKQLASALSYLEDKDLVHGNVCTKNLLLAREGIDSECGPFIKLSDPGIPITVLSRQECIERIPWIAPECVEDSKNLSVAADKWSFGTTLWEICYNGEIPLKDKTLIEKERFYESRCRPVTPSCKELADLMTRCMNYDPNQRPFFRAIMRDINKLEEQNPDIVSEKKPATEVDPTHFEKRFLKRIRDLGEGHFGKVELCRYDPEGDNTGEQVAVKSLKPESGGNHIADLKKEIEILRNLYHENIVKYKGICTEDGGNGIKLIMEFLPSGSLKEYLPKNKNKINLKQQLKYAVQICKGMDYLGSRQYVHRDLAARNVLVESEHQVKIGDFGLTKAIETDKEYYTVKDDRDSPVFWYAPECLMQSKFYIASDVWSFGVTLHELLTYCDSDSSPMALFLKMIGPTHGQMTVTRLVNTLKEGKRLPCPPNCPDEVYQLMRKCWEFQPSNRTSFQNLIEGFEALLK

Regarding `CNCCC(c1ccc(-n2cc(-c3ccnc4[nH]cnc34)cn2)nc1)C(F)(F)F` (stereo not drawn) [Example 1152, 3-(6-(4-(3H-imidazo[4,5-b]pyridin-7-yl)-1H-pyrazol-1-yl)pyridin-3-yl)-4,4,4-trifluoro-N-methylbutan-1-amine], the IC50 at Recombinant JAK3 is < 0.1 µM; on Recombinant JAK2, < 0.1 µM; at Recombinant JAK1, < 0.1 µM; at Recombinant TYK2, > 0.5 µM; in test [1] (HT-2 cells), > 0.1 µM; in test [2], > 0.1 µM.
For `N#CC1CN(C(=O)CCC(c2ccc(-n3cc(-c4ccnc5[nH]cnc45)cn3)nc2)C(F)(F)F)C1` (stereo not drawn) [Example 1250, 1-(4-(6-(4-(3H-imidazo[4,5-b]pyridin-7-yl)-1H-pyrazol-1-yl)pyridin-3-yl)-5,5,5-trifluoropentanoyl)azetidine-3-carbonitrile], the IC50 was < 0.1 µM at Recombinant JAK3; < 0.1 µM on Recombinant JAK2; < 0.1 µM at Recombinant JAK1; > 1 µM on Recombinant TYK2; > 1 µM in test [1] (HT2, HT-2 cells); > 1 µM in test [2].
Turning to `CNC(=O)CCC(c1ccc(-n2cc(-c3ccnc4[nH]cnc34)cn2)nc1)C(F)(F)F` (stereo not drawn) [Example 1148, 4-(6-(4-(3H-imidazo[4,5-b]pyridin-7-yl)-1H-pyrazol-1-yl)pyridin-3-yl)-5,5,5-trifluoro-N-methylpentanamide], the IC50 at Recombinant JAK3 was < 0.1 µM; at Recombinant JAK2, < 0.1 µM; at Recombinant JAK1, < 0.1 µM; at Recombinant TYK2 it was > 1 µM; in test [1] (HT2, HT-2 cells), > 1 µM; in test [2] it was > 0.5 µM.
For the compound `CNC(=O)C[C@H](c1ccc(-n2cc(-c3ccnc4[nH]cnc34)cn2)nc1)C(F)(F)F` [Example 1213, (R)-3-(6-(4-(3H-imidazo[4,5-b]pyridin-7-yl)-1H-pyrazol-1-yl)pyridin-3-yl)-4,4,4-trifluoro-N-methylbutanamide], the IC50 was < 0.1 µM at Recombinant JAK3; < 0.1 µM at Recombinant JAK2; < 0.1 µM at Recombinant JAK1; > 0.5 µM on Recombinant TYK2; 0.7 µM in test [1] (HT2, HT-2 cells); 0.55 µM in test [2].
In the case of `CNC(=O)C[C@@H](c1ccc(-n2cc(-c3ccnc4[nH]cnc34)cn2)nc1)C(F)(F)F` [Example 1214, (S)-3-(6-(4-(3H-imidazo[4,5-b]pyridin-7-yl)-1H-pyrazol-1-yl)pyridin-3-yl)-4,4,4-trifluoro-N-methylbutanamide], the IC50 at Recombinant JAK3 was < 0.1 µM; at Recombinant JAK2, < 0.5 µM; at Recombinant JAK1, < 0.1 µM; at Recombinant TYK2 it was > 1 µM; in test [1] (HT2, HT-2 cells), > 1 µM; in test [2], > 1 µM.
With `CS(=O)(=O)CCC(c1ccc(-n2cc(-c3ccnc4[nH]cnc34)cn2)cc1)C(F)(F)F` (stereo not drawn) [Example 1190, 7-(1-(4-(1,1,1-trifluoro-4-(methylsulfonyl)butan-2-yl)phenyl)-1H-pyrazol-4-yl)-3H-imidazo[4,5-b]pyridine], the IC50 is < 0.1 µM on Recombinant JAK3; < 0.1 µM on Recombinant JAK2; < 0.1 µM at Recombinant JAK1; > 1 µM on Recombinant TYK2; 3.6 µM in test [1] (HT2, HT-2 cells); 1 µM in test [2].
Regarding `CNC(=O)N1CC(C(O)(c2ccc(-n3cc(-c4ccnc5[nH]cnc45)cn3)nc2)C(F)(F)F)C1` (stereo not drawn) [Example 1246, 3-(1-(6-(4-(3H-imidazo[4,5-b]pyridin-7-yl)-1H-pyrazol-1-yl)pyridin-3-yl)-2,2,2-trifluoro-1-hydroxyethyl)-N-methylazetidine-1-carboxamide], the IC50 at Recombinant JAK3 worked out at 0.006 µM; on Recombinant JAK2, 0.034 µM; on Recombinant JAK1 it was 0.006 µM; at Recombinant TYK2, 0.79 µM; in test [1] (HT2, HT-2 cells), 2 µM; in test [2] it was 1.5 µM.
With `OC(CN1CCOCC1)(c1ccc(-n2cc(-c3ccnc4[nH]cnc34)cn2)nc1)C(F)(F)F` (stereo not drawn) [Example 1229, 2-(6-(4-(3H-imidazo[4,5-b]pyridin-7-yl)-1H-pyrazol-1-yl)pyridin-3-yl)-1,1,1-trifluoro-3-morpholinopropan-2-ol], the IC50 at Recombinant JAK3 was < 0.1 µM; at Recombinant JAK2, < 0.1 µM; at Recombinant JAK1, < 0.1 µM; on Recombinant TYK2, > 1 µM; in test [1] (HT2, HT-2 cells) it was > 1 µM; in test [2] it was > 1 µM.
For `CC(C)N1CCC([C@@](O)(c2ccc(-n3cc(-c4ccnc5[nH]cnc45)cn3)cc2)C(F)(F)F)C1` (stereo partly drawn) [Example 1252, (R)-1-(4-(4-(3H-imidazo[4,5-b]pyridin-7-yl)-1H-pyrazol-1-yl)phenyl)-2,2,2-trifluoro-1-(1-isopropylpyrrolidin-3-yl)ethanol], the IC50 at Recombinant JAK3 was < 0.1 µM; on Recombinant JAK2 it was < 0.1 µM; at Recombinant JAK1, < 0.1 µM; on Recombinant TYK2 it was > 0.5 µM; in test [1] (HT2, HT-2 cells), 1.63 µM; in test [2], 1.1 µM.
`N#CC(C(=O)NCC(F)(F)F)c1ccc(-n2cc(-c3ccnc4[nH]cnc34)cn2)nc1` (stereo not drawn) [Example 1168, 2-(6-(4-(3H-imidazo[4,5-b]pyridin-7-yl)-1H-pyrazol-1-yl)pyridin-3-yl)-2-cyano-N-(2,2,2-trifluoroethyl)acetamide]: the IC50 on Recombinant JAK3 is > 0.1 µM; at Recombinant JAK2 it was > 0.5 µM; at Recombinant JAK1, > 0.1 µM; at Recombinant TYK2, > 1 µM; in test [1] (HT2, HT-2 cells), > 1 µM; in test [2] it was > 1 µM.
On to `CC(C)N1CCC([C@](O)(c2ccc(-n3cc(-c4ccnc5[nH]cnc45)cn3)cc2)C(F)(F)F)C1` (stereo partly drawn) [Example 1251, (S)-1-(4-(4-(3H-imidazo[4,5-b]pyridin-7-yl)-1H-pyrazol-1-yl)phenyl)-2,2,2-trifluoro-1-(1-isopropylpyrrolidin-3-yl)ethanol], for which the IC50 on Recombinant JAK3 was < 0.1 µM; on Recombinant JAK2 it was < 0.1 µM; at Recombinant JAK1, < 0.1 µM; at Recombinant TYK2, > 0.5 µM; in test [1] (HT2, HT-2 cells), > 2 µM; in test [2], 1 µM.
Take `CNCC[C@@H](c1ccc(-n2cc(-c3ccnc4[nH]cnc34)cn2)nc1)C(F)(F)F` [Example 1217, (S)-3-(6-(4-(3H-imidazo[4,5-b]pyridin-7-yl)-1H-pyrazol-1-yl)pyridin-3-yl)-4,4,4-trifluoro-N-methylbutan-1-amine, TFA salt]: the IC50 was 0.006 µM on Recombinant JAK3; 0.007 µM on Recombinant JAK2; 0.0026 µM at Recombinant JAK1; 0.08 µM on Recombinant TYK2; > 0.5 µM in test [1] (HT2, HT-2 cells); > 0.1 µM in test [2].
As to `N#CCC(=O)NC(c1ccc(-n2cc(-c3ccnc4[nH]cnc34)cn2)nc1)C(F)(F)F` (stereo not drawn) [Example 1192, N-(1-(6-(4-(3H-imidazo[4,5-b]pyridin-7-yl)-1H-pyrazol-1-yl)pyridin-3-yl)-2,2,2-trifluoroethyl)-2-cyanoacetamide], the IC50 on Recombinant JAK3 was < 0.1 µM; at Recombinant JAK2, < 0.1 µM; at Recombinant JAK1 it was < 0.1 µM; at Recombinant TYK2, > 1 µM; in test [1] (HT2, HT-2 cells), > 0.8 µM; in test [2], > 0.8 µM.
